Source: paper PMC6965176, “Targeting Forward and Reverse EphB4/EFNB2 Signaling by a Peptide with Dual Functions” (Scientific Reports, 2020)
Non-standard residues stand in square brackets, D forms with d. Residues, ends and D or L forms follow the SMILES beside them.

Experiments:
[1] = target: T1, EphB4 on the surface of A2780cp20 cells (Homo sapiens, UniProt P54760); assay: Cell-based binding assay: displacement of EFNB2-Fc from A2780cp20 cells (flow cytometry); conditions: EFNB2-Fc 20 nM, BIDEN-AP 0-100 µM, 25 °C, 1 h, PE-anti-Fc flow cytometry, duplicate (Fig. 1D,E)
T1 construct: endogenous in cells; host or cells: A2780cp20 ovarian cancer cells
T1 sequence (P54760 16-987): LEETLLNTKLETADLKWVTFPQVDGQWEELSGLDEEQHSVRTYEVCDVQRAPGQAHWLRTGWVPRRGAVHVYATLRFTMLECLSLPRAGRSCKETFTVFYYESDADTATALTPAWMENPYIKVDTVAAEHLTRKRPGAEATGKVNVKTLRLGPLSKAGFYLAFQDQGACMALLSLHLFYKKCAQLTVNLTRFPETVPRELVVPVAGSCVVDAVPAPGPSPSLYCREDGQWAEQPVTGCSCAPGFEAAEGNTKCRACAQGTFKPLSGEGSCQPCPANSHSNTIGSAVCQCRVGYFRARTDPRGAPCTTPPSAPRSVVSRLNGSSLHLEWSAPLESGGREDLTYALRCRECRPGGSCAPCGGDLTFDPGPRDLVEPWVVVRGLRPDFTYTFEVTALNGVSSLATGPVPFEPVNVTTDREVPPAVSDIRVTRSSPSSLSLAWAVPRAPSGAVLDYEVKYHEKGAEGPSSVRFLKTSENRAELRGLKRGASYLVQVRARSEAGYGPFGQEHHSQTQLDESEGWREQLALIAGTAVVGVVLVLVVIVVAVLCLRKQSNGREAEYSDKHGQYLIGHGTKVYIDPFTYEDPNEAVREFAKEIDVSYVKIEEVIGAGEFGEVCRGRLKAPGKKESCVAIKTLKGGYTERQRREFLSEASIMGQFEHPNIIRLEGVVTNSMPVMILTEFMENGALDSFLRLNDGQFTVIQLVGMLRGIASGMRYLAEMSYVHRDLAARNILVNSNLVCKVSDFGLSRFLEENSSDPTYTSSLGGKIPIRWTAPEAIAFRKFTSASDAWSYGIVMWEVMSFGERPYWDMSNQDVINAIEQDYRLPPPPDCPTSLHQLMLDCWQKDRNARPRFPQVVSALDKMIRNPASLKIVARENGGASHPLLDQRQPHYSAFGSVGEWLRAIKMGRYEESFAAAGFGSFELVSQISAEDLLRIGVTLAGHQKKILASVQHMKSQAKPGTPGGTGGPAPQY
Protocol: Figure 1 Novel EphB4 agonist BIDEN-AP has high receptor binding affinity. (A) Structure of BIDEN-AP. D-Tyr-P3 is highlighted in red. (B) Surface plasmon resonance (SPR) sensorgrams of BIDEN-AP. Vertical axes, in response units (RU), represent binding of the peptide to immobilized EphB4. (C) Competition of BIDEN-AP with EFNB2-Fc for EphB4 binding. BIDEN-AP at concentrations from 2 nM to 1000 nM was mixed with human EphB4 (30 nM) and injected onto sensor chips coated with EFNB2-Fc. (D) Competition of BIDEN-AP with EFNB2-Fc for EphB4 binding at the cellular level. A2780cp20 cells were co-incubated with EFNB2-Fc (20 nM) and BIDEN-AP (at concentrations from 0 to 100 µM) at 25 °C for 1 h. EFNB2-Fc bound to the cells was probed with phycoerythrin-labeled anti-Fc antibody and analyzed by flow cytometry. (E) Bound EFNB2-Fc as a function of BIDEN-AP concentration. […]
A2780cp20 ovarian cancer cells (1×10^6 cells/mL) were incubated with EFNB2-Fc (20 nM) and BIDEN-AP at concentrations ranging from 0 to 100 µM at 25 °C for 1 h. After washings, EFNB2-Fc bound to the cells were probed with phycoerythrin (PE)-labeled anti-Fc antibody and analyzed by flow cytometry. Binding of BIDEN-AP to A2780cp20 cells was determined by its capacity to displace EFNB2-Fc’s binding to the tumor cells, measured by decreased PE fluorescence signal. Cells were analyzed in a Cellquest fluorocytometer (BD Bioscience, San Jose, CA). […]

MDA-HGSC-1 PDX tumor = assay: Subcutaneous MDA-HGSC-1 patient-derived xenograft model; type: in vivo, mice; conditions: 300 µg/injection i.p., 14 doses (Fig. S10B)
Excerpt: Under Institutional Review Board (IRB protocol PA15-0441) and IACUC approval at MD Anderson Cancer Center, patients with HGSC who were being treated at MD Anderson gave consent for the use of their tumor tissue in this study. Four- to six-week-old female Balb C athymic nude mice (Harlan Laboratories) were implanted with one PDX 3×3×3 mm tumor cube (MDA-HGSOC-1 high-grade serous ovarian cancer; generation 9) in the dorsal flank to create subcutaneous HGSC-PDX model. Tumor size was monitored by caliber, and tumor volume was calculated using the formula V(cm^3) = (length x width^2)/2. Mice were randomly assigned to the PBS vehicle control or BIDEN-AP treatment group, 6 mice per group, once tumor size reached ~100 mm^3 (21 days after implantation). Treatments consisted of intraperitoneal injection of PBS or BIDEN-AP at 300 μg/injection (100 μL/injection) once every other day for a total of 14 doses. At the end of the study (day 49), all mice were euthanized, and tumors were collected, weighed, snap-frozen in optimal cutting temperature compound with liquid nitrogen, and cryosectioned into 5-μm sections for immunohistochemical staining of CD31 and Ki67 markers.
incubated overnight at 4°C.
Slides were subjected to recombinant terminal
The slides were then labeled by adding
Microvessel density was evaluated
magnification from three tumor samples.
For CD31 staining, slides were […]

## CC[C@H](C)[C@H](NC(=O)[C@@H]1CCCN1C(=O)CNC(=O)[C@H](CC(N)=O)NC(=O)[C@@H]1CCCN1C(=O)[C@H](CO)NC(=O)[C@H](Cc1ccccc1)NC(=O)[C@H](CC(C)C)NC(=O)[C@@H](Cc1ccc(O)cc1)NC(=O)[C@H](CC(N)=O)NC(=O)[C@@H](N)[C@@H](C)O)C(=O)N[C@@H](C)C(=O)N[C@@H](CCCNC(=N)N)C(=O)N[C@@H](C)C(=O)N[C@@H](Cc1c[nH]c2ccccc12)C(N)=O [BIDEN-AP] (H-TN[dY]LFSPNGPIARAW-NH2)
[1]
  IC50: ~1000 nM
MDA-HGSC-1 PDX tumor
  body weight change compared to control group: did not cause body weight change
